Drawing on paper PMC3856698 (Biochemistry, 2013), this text covers Ki and Kd for seven compounds.

One assay concerns the target T1, VHZ (LDP3) (Homo sapiens, UniProt Q9BVJ7).
T1 sequence (Q9BVJ7 1-150): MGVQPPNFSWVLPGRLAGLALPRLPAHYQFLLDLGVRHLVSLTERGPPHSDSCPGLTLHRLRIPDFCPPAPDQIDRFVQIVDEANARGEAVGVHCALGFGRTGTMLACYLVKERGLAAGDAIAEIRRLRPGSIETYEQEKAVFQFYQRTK
In words: inhibition of pNPP hydrolysis, competitive model fit. The format is biochemical.

In assay [1] the target is T2, VHR (Homo sapiens, UniProt P51452). In words: pre-steady-state burst kinetics, stopped flow at […] nm. The format is biochemical. The note with it: read-out: KS.
Another assay deals with PTP1B (Homo sapiens, UniProt P18031). As to the kind of experiment: biochemical.
Another assay has as its target T3, SsoPTP (Saccharolobus solfataricus, UniProt Q97VZ7).
T3 sequence (Q97VZ7 1-161): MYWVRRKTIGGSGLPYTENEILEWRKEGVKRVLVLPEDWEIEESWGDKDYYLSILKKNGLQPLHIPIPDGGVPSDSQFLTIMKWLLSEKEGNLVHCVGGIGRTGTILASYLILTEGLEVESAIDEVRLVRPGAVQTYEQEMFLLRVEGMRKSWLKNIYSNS
In words: biochemical.

Assay [2] concerns the target T2, VHR. In words: biochemical.

SMILES strings stand for the structures.

T2 sequence (P51452 whole entry): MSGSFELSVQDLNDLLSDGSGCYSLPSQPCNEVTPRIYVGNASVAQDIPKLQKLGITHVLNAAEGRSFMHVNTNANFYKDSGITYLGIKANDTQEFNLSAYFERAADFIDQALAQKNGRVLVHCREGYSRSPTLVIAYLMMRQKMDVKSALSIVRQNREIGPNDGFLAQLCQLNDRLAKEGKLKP
PTP1B, sequence (P18031 1-321 limits assumed): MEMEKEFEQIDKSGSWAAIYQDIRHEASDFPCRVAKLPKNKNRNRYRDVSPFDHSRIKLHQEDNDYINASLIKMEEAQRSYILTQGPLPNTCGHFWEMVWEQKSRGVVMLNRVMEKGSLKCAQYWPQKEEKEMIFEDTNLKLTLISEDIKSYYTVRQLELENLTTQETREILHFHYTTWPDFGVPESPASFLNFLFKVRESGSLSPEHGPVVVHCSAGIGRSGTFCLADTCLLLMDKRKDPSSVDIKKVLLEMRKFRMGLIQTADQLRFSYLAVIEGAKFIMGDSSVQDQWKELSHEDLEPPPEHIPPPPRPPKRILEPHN

Take `O=S(=O)(O)CCN1CCN(CCO)CC1` [HEPES]: at VHZ (LDP3), the affinity corresponds to a Ki of 26 ± 3 mM. Regarding `O=[N+]([O-])c1ccc(OP(=O)(O)O)cc1` [pNPP], at VHR [1], the Kd came out at 11.8 mM. Turning to `O=C(O)CN(CCN(CC(=O)O)CC(=O)O)CC(=O)O` [EDTA], on VHZ (LDP3), the Ki (usually the dissociation constant of the complex between target and ligand, obtained from inhibition or displacement) is 22 ± 2 mM. On VHZ (LDP3), `[O]=[V]([OH])([OH])[OH]` [Vanadate] had an inhibitory constant (Ki) of 0.0027 ± 0.0003 mM. For `O=P(O)(O)O` [Inorganic phosphate], the Ki on PTP1B amounted to 3.7 ± 0.1 mM; on SsoPTP, 0.54 ± 0.42 mM; at YopH, 4.4 ± 0.2 mM; on VHZ (LDP3), 0.67 ± 0.05 mM; at VHR [2], 0.7 ± 0.3 mM. `NC(CO)(CO)CO` [Tris] returned a Ki at VHZ (LDP3) of 88 ± 9 mM. `O=S(=O)(O)O` [Sulfate] yielded a Ki on VHZ (LDP3) of 4.6 ± 0.3 mM.
